Laboratory results reported in ChEMBL document CHEMBL1131753, “Selective binding of bryostatin analogues to the cysteine rich domains of protein kinase C isozymes” (Bioorg Med Chem Lett, 1999).

Experiments:
[1] = molecular target: T1, Protein kinase C gamma type (Homo sapiens, UniProt P05129); test: Displacement of [3H]-PDBu from protein kinase C gamma C1a domain
[2] = molecular target: T2, Protein kinase C epsilon type (Homo sapiens, UniProt Q02156); test: Displacement of [3H]PDBu from protein kinase C epsilon C1b domain
T2 sequence (Q02156 whole entry): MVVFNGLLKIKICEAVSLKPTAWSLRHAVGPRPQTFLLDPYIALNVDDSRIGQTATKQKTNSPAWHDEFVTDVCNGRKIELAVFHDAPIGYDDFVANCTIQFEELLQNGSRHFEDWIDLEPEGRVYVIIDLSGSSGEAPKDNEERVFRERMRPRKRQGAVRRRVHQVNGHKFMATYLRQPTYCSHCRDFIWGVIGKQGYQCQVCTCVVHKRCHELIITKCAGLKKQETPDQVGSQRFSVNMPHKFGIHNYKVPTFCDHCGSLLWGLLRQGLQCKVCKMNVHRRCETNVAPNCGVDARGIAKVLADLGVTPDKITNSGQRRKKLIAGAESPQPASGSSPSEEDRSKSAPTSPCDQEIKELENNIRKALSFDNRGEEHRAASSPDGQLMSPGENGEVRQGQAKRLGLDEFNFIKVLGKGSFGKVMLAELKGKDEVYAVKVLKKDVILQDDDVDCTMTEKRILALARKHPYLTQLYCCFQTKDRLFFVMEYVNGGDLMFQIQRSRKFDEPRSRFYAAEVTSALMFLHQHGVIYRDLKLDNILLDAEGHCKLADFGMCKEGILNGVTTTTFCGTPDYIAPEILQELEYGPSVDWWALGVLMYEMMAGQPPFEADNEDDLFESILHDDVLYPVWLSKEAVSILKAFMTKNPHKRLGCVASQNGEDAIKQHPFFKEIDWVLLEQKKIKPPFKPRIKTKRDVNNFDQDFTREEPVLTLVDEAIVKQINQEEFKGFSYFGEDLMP

[3] = molecular target: Protein kinase C eta type (Homo sapiens, UniProt P24723); test: Displacement of [3H]PDBu from protein kinase C eta C1b domain
[4] = molecular target: T1, Protein kinase C gamma type; test: Displacement of [3H]PDBu from protein kinase C gamma C1b domain
[5] = molecular target: T3, Protein kinase C delta type (Homo sapiens, UniProt Q05655); test: Displacement of [3H]PDBu from protein kinase C delta C1a domain
[6] = molecular target: T3, Protein kinase C delta type; test: Displacement of [3H]PDBu from protein kinase C delta C1b domain
[7] = molecular target: Protein kinase C alpha type (Homo sapiens, UniProt P17252); test: Displacement of [3H]PDBu from protein kinase C alpha C1b domain
[8] = molecular target: Protein kinase C theta type (Homo sapiens, UniProt Q04759); test: Displacement of [3H]PDBu from protein kinase C theta-C1B domain
[9] = molecular target: Protein kinase C beta type (Homo sapiens, UniProt P05771); test: Displacement of [3H]PDBu from protein kinase C beta C1b domain
Chain of Protein kinase C beta type (P05771 whole entry, the tested form may be a part): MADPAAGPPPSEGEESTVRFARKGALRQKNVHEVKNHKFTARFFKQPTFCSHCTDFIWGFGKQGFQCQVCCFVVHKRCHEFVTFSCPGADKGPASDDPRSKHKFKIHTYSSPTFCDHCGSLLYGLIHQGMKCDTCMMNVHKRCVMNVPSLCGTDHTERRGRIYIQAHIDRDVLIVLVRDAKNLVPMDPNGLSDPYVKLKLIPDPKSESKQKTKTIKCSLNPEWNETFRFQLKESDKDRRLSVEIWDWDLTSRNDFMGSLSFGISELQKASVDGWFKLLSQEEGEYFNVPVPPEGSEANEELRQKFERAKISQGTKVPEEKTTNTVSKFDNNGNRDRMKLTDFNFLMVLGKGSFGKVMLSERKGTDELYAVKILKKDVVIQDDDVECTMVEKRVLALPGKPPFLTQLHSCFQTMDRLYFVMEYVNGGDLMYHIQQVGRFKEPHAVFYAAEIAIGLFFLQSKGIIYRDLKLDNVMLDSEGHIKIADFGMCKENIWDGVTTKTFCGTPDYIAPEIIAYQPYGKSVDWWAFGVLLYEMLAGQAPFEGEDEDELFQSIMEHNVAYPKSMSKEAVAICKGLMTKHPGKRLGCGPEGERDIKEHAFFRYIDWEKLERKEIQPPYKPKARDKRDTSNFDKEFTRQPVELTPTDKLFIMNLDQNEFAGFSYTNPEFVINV

Chain of Protein kinase C theta type (Q04759 whole entry, the tested form may be a part): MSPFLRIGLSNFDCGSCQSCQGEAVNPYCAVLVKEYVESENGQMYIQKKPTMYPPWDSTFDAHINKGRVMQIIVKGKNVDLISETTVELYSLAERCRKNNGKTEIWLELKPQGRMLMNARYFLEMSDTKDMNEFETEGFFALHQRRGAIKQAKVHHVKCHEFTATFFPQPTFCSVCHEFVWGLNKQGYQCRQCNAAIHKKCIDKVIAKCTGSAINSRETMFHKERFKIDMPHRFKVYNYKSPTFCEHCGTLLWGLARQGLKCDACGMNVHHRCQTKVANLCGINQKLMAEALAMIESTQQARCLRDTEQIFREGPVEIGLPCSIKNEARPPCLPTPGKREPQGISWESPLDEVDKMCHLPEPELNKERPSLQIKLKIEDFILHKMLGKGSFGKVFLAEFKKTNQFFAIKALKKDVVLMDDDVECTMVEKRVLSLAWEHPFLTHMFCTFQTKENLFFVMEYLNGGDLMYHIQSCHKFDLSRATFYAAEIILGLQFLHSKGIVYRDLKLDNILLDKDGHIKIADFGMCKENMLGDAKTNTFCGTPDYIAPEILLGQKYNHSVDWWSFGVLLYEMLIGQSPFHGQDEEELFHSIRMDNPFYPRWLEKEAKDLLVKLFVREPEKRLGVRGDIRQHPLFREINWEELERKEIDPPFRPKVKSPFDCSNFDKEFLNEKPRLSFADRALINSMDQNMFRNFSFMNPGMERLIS
Chain of Protein kinase C eta type (P24723 whole entry, the tested form may be a part): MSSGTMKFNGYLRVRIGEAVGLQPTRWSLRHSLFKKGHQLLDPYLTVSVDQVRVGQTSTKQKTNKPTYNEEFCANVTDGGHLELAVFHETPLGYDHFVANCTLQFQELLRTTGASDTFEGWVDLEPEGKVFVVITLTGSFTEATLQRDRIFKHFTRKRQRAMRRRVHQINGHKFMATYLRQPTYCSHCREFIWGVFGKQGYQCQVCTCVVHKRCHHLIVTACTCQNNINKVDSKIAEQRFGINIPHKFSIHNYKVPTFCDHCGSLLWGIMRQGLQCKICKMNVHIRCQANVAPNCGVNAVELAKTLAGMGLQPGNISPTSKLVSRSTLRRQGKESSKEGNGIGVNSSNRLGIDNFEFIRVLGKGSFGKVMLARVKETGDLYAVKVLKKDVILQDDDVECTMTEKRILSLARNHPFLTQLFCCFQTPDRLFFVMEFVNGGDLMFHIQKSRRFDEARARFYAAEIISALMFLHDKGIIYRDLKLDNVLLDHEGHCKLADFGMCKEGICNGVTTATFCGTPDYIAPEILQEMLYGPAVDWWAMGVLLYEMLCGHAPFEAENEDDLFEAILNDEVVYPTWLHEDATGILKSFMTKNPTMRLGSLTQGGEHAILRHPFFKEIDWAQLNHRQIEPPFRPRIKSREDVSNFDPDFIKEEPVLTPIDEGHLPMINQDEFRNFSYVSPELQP
T3 sequence (Q05655 whole entry, the tested form may be a part): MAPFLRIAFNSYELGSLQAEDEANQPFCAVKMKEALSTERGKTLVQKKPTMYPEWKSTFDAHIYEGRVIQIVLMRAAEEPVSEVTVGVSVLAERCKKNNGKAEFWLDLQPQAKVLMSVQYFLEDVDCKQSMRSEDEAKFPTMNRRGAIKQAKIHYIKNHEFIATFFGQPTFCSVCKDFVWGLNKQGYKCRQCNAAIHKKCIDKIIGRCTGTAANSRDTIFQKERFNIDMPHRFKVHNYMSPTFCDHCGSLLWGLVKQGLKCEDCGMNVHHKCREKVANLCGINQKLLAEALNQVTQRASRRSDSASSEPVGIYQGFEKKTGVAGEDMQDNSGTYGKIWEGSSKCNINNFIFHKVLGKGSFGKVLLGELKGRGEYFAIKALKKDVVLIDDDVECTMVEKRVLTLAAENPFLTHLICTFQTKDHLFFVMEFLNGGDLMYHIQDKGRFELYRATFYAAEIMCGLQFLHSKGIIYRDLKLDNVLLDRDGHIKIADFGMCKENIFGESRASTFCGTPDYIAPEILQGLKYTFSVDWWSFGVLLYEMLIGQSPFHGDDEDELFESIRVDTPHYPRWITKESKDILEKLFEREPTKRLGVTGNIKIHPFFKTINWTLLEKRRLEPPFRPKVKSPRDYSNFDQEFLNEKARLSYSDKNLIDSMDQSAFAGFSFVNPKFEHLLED

SMILES	Ki [1]	Ki [2]	Ki [3]	Ki [4]	Ki [5]	Ki [6]	Ki [7]	Ki [8]	Ki [9]
CCCCCCCC(=O)O[C@H]1/C(=C/C(=O)OC)CC2C[C@H]([C@@H](C)O)OC(=O)C[C@@H](O)C[C@@H]3CCC[C@H](C[C@@H]4CCO[C@H](/C=C/C(C)(C)[C@]1(O)O2)O4)O3	> 500 nM	490 nM	> 500 nM	> 500 nM	494 nM	64.2 nM	> 500 nM	147 nM	280 nM
CCCCCCCC(=O)O[C@H]1/C(=C/C(=O)OC)CC2C[C@H]([C@@H](C)O)OC(=O)C[C@H](O)C[C@@H]3CCC[C@H](C[C@@H]4CCO[C@H](/C=C/C(C)(C)[C@]1(O)O2)O4)O3	> 500 nM	17.9 nM	23.5 nM	> 500 nM	65.9 nM	2.5 nM	126 nM	6.6 nM	13.4 nM
CCCCCCCC(=O)O[C@H]1/C(=C/C(=O)OC)CC2C[C@H]([C@@H](C)O)OC(=O)C[C@H](O)CCO[C@H](C(C)(C)C)C[C@@H]3CCO[C@H](/C=C/C(C)(C)[C@]1(O)O2)O3	> 500 nM	55 nM	70.2 nM	> 500 nM	85.4 nM	6.3 nM	> 500 nM	24.1 nM	36.4 nM
